# Data published in patent publication US12570655B2, “Cysteine covalent modifiers of AKT1 and uses thereof” (Terremoto Biosciences, Inc., priority 2023, dated 2026).
# Where two headings read alike, the source gives them in different places.
# Key:
# Type in all cases: cell-based
# AKT2 = molecular target: T1, AKT2 (Homo sapiens, UniProt P31751); test: Live cell AKT2 target engagement by NanoBRET competitive probe displacement; settings: HEK293 cells transfected with kinase-NanoLuciferase fusion, 2 h at 37° C.
# T1 construct: expressed in transfected cells; host or cells: HEK293
# T1 sequence (P31751 whole entry, the tested form may be a part): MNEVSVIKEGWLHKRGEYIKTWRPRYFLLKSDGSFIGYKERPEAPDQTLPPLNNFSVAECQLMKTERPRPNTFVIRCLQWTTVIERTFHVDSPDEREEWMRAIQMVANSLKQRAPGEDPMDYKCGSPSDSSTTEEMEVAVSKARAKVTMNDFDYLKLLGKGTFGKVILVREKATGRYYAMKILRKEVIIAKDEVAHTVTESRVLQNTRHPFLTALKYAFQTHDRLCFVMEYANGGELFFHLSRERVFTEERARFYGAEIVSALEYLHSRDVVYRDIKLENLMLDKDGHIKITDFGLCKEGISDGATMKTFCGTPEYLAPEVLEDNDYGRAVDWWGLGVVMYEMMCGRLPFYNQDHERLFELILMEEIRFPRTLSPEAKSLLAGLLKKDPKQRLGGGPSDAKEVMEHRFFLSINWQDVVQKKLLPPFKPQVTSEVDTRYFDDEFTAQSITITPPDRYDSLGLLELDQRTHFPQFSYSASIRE
# In short: (§1)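 IC50 reflects displacement of a fluorescent ATP-competitive tracer, dosed near its EC50, from kinase–NanoLuciferase fusions in live HEK293 cells. Cells were incubated with compound and tracer for 2 h at 37 °C, then E600/E460 BRET was read.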
# AKT1 E17K = molecular target: T2, AKT1 E17K (Homo sapiens, UniProt P31749, E17K); test: Live cell AKT1 E17K target engagement by NanoBRET competitive probe displacement; settings: HEK293 cells transfected with kinase-NanoLuciferase fusion, 2 h at 37° C.
# T2 construct: expressed in transfected cells; host or cells: HEK293
# T2 sequence (P31749 whole entry E17K, the tested form may be a part): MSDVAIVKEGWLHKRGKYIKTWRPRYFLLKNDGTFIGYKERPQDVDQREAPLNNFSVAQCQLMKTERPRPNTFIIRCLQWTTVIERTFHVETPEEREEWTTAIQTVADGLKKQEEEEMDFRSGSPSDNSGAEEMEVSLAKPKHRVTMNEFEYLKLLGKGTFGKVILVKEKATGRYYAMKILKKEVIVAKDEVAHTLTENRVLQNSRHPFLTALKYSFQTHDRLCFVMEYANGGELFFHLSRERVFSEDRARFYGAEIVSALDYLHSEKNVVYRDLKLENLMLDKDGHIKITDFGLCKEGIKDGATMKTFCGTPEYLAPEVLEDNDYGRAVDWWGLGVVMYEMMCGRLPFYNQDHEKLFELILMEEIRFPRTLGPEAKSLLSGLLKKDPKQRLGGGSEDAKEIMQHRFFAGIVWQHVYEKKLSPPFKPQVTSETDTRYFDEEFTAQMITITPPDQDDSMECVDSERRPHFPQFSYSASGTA
# In short: as §1
# [1] = tested on: LAPC4 prostate cancer cells; test: Antiproliferative effects in LAPC4 cells (CellTiter Glo); settings: LAPC4 cells (AKT1 E17K allele), read-out: LAPC4 proliferation IC50
# In short: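 Seed 1,000 cells/well in IMDM/12% FBS/1% P/S; add compound dilutions (DMSO); incubate 72 h; read intracellular ATP with CellTiter Glo; fit luminescence to log(inhibitor)-response Hill curve for IC50.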
# AKT1 WT = molecular target: T3, AKT1 WT (Homo sapiens, UniProt P31749); test: Live cell AKT1 WT target engagement by NanoBRET competitive probe displacement; settings: HEK293 cells transfected with kinase-NanoLuciferase fusion, 2 h at 37° C.
# T3 construct: expressed in transfected cells; host or cells: HEK293
# T3 sequence (P31749 whole entry, the tested form may be a part): as the sequence (P31749 whole entry E17K, the tested form may be a part) above, with K17E counted along it
# In short: as §1
SMILES,IC50 (AKT2),IC50 (AKT1 E17K),IC50 ([1]; 72 h),IC50 (AKT1 WT),"IC50 ([1]; Homo sapiens, LAPC4, 72 h)"
"C=CC(=O)N1C[C@H]2COC[C@@H](C1)C2N[C@H]1CCc2cc(-n3c(-c4cccnc4N)nc4ccc(-n5cccn5)nc43)ccc21 (single isomer, unassigned) [Example 72, 1-((1R,5S,9*)-9-(((S)-5-(2-(2-aminopyridin-3-yl)-5-(1H-pyrazol-1-yl)-3H-imidazo[4,5-b]pyridin-3-yl)-2,3-dihydro-1H-inden-1-yl)amino)-3-oxa-7-azabicyclo[3.3.1]nonan-7-yl)prop-2-en-1-one]",289 nM,75.2 nM,493 nM,15.8 nM,–
"C=CC(=O)N1C[C@H]2COC[C@@H](C1)C2N[C@H]1CCc2cc(-n3c(-c4cccnc4N)nc4ccc(-n5cccn5)nc43)ccc21 (single isomer, unassigned) [Example 73, 1-((1R,5S,9*)-9-(((S)-5-(2-(2-aminopyridin-3-yl)-5-(1H-pyrazol-1-yl)-3H-imidazo[4,5-b]pyridin-3-yl)-2,3-dihydro-1H-inden-1-yl)amino)-3-oxa-7-azabicyclo[3.3.1]nonan-7-yl)prop-2-en-1-one]",86.3 nM,19 nM,74.4 nM,16 nM,–
"C=CC(=O)N1CC2(CCCC(N[C@H]3CCc4cc(-n5c(-c6cccnc6N)nc6ccc(-n7cccn7)nc65)ccc43)C2)C1 (single isomer, unassigned) [Example 78, 1-((*)-6-(((S)-5-(2-(2-aminopyridin-3-yl)-5-(1H-pyrazol-1-yl)-3H-imidazo[4,5-b]pyridin-3-yl)-2,3-dihydro-1H-inden-1-yl)amino)-2-azaspiro[3.5]nonan-2-yl)prop-2-en-1-one]",136 nM,63 nM,–,22 nM,212 nM
"C=CC(=O)N1CC2(CCCC(N[C@H]3CCc4cc(-n5c(-c6cccnc6N)nc6ccc(-n7cccn7)nc65)ccc43)C2)C1 (single isomer, unassigned) [Example 79, 1-((*)-6-(((S)-5-(2-(2-aminopyridin-3-yl)-5-(1H-pyrazol-1-yl)-3H-imidazo[4,5-b]pyridin-3-yl)-2,3-dihydro-1H-inden-1-yl)amino)-2-azaspiro[3.5]nonan-2-yl)prop-2-en-1-one]",27.1 nM,14.2 nM,–,11.9 nM,16.8 nM
"C=CC(=O)N1CCCC(N[C@H]2CCc3cc(-n4c(-c5cccnc5N)nc5ccc(-n6cccn6)nc54)ccc32)CC1 (single isomer, unassigned) [Example 81, 1-((*)-4-(((S)-5-(2-(2-aminopyridin-3-yl)-5-(1H-pyrazol-1-yl)-3H-imidazo[4,5-b]pyridin-3-yl)-2,3-dihydro-1H-inden-1-yl)amino)azepan-1-yl)prop-2-en-1-one]",1200 nM,> 1000 nM,7600 nM,93.2 nM,–
"C=CC(=O)N1CCCC(N[C@H]2CCc3cc(-n4c(-c5cccnc5N)nc5ccc(-n6cccn6)nc54)ccc32)CC1 (single isomer, unassigned) [Example 82, 1-((*)-4-(((S)-5-(2-(2-aminopyridin-3-yl)-5-(1H-pyrazol-1-yl)-3H-imidazo[4,5-b]pyridin-3-yl)-2,3-dihydro-1H-inden-1-yl)amino)azepan-1-yl)prop-2-en-1-one]",640 nM,247 nM,568 nM,78.1 nM,–
"C=CC(=O)N1[C@H](C)CC(N[C@H]2CCc3cc(-n4c(-c5cccnc5N)nc5ccc(-n6cccn6)nc54)ccc32)C[C@@H]1C (single isomer, unassigned) [Example 87, 1-((2S,4*,6R)-4-(((R)-5-(2-(2-aminopyridin-3-yl)-5-(1H-pyrazol-1-yl)-3H-imidazo[4,5-b]pyridin-3-yl)-2,3-dihydro-1H-inden-1-yl)amino)-2,6-dimethylpiperidin-1-yl)prop-2-en-1-one]",577 nM,165 nM,364 nM,25.5 nM,–
"C=CC(=O)N1[C@H](C)CC(N[C@H]2CCc3cc(-n4c(-c5cccnc5N)nc5ccc(-n6cccn6)nc54)ccc32)C[C@@H]1C (single isomer, unassigned) [Example 88, 1-((2S,4*,6R)-4-(((R)-5-(2-(2-aminopyridin-3-yl)-5-(1H-pyrazol-1-yl)-3H-imidazo[4,5-b]pyridin-3-yl)-2,3-dihydro-1H-inden-1-yl)amino)-2,6-dimethylpiperidin-1-yl)prop-2-en-1-one]",180 nM,48.7 nM,87.7 nM,21.5 nM,–
"C=CC(=O)NC1CC(N[C@H]2CCc3cc(-n4c(-c5cccnc5N)nc5ccc(-n6cccn6)nc54)ccc32)C1 (single isomer, unassigned) [Example 89, N-((1*,3*)-3-(((S)-5-(2-(2-aminopyridin-3-yl)-5-(1H-pyrazol-1-yl)-3H-imidazo[4,5-b]pyridin-3-yl)-2,3-dihydro-1H-inden-1-yl)amino)cyclobutyl)acrylamide]",75.2 nM,22.9 nM,74.9 nM,8.15 nM,–
"C=CC(=O)NC1CC(N[C@H]2CCc3cc(-n4c(-c5cccnc5N)nc5ccc(-n6cccn6)nc54)ccc32)C1 (single isomer, unassigned) [Example 90, N-((1*,3*)-3-(((S)-5-(2-(2-aminopyridin-3-yl)-5-(1H-pyrazol-1-yl)-3H-imidazo[4,5-b]pyridin-3-yl)-2,3-dihydro-1H-inden-1-yl)amino)cyclobutyl)acrylamide]",109 nM,156 nM,351 nM,41.2 nM,–
"C=CC(=O)N1CC2(CCC(N[C@H]3CCc4cc(-n5c(-c6cccnc6N)nc6ccc(-n7cccn7)nc65)ccc43)C2)C1 (single isomer, unassigned) [Example 91, 1-((*)-6-(((S)-5-(2-(2-aminopyridin-3-yl)-5-(1H-pyrazol-1-yl)-3H-imidazo[4,5-b]pyridin-3-yl)-2,3-dihydro-1H-inden-1-yl)amino)-2-azaspiro[3.4]octan-2-yl)prop-2-en-1-one]",558 nM,116 nM,351 nM,36.6 nM,–
"C=CC(=O)N1CC2(CCC(N[C@H]3CCc4cc(-n5c(-c6cccnc6N)nc6ccc(-n7cccn7)nc65)ccc43)C2)C1 (single isomer, unassigned) [Example 92, 1-((*)-6-(((S)-5-(2-(2-aminopyridin-3-yl)-5-(1H-pyrazol-1-yl)-3H-imidazo[4,5-b]pyridin-3-yl)-2,3-dihydro-1H-inden-1-yl)amino)-2-azaspiro[3.4]octan-2-yl)prop-2-en-1-one]",58.8 nM,18.9 nM,30.7 nM,6.94 nM,–
"C=CC(=O)N1CCC(N[C@H]2CCc3cc(-n4c(-c5cccnc5N)nc5ccc(-n6cccn6)nc54)ccc32)CC12CCC2 (single isomer, unassigned) [Example 93, 1-((*)-8-(((S)-5-(2-(2-aminopyridin-3-yl)-5-(1H-pyrazol-1-yl)-3H-imidazo[4,5-b]pyridin-3-yl)-2,3-dihydro-1H-inden-1-yl)amino)-5-azaspiro[3.5]nonan-5-yl)prop-2-en-1-one]",11.4 nM,6.16 nM,5.02 nM,5.63 nM,–
"C=CC(=O)N1CCC(N[C@H]2CCc3cc(-n4c(-c5cccnc5N)nc5ccc(-n6cccn6)nc54)ccc32)CC12CCC2 (single isomer, unassigned) [Example 94, 1-((*)-8-(((S)-5-(2-(2-aminopyridin-3-yl)-5-(1H-pyrazol-1-yl)-3H-imidazo[4,5-b]pyridin-3-yl)-2,3-dihydro-1H-inden-1-yl)amino)-5-azaspiro[3.5]nonan-5-yl)prop-2-en-1-one]",2640 nM,652 nM,1170 nM,147 nM,–
"C=CC(=O)N1CCC(N[C@H]2CCc3cc(-n4c(-c5cccnc5N)nc5ccc(-n6cccn6)nc54)ccc32)C(C)C1 (single isomer, unassigned) [Example 99, 1-((3*,4*)-4-(((S)-5-(2-(2-aminopyridin-3-yl)-5-(1H-pyrazol-1-yl)-3H-imidazo[4,5-b]pyridin-3-yl)-2,3-dihydro-1H-inden-1-yl)amino)-3-methylpiperidin-1-yl)prop-2-en-1-one]",560 nM,89.4 nM,716 nM,33.4 nM,–
"C=CC(=O)N1CCC(N[C@H]2CCc3cc(-n4c(-c5cccnc5N)nc5ccc(-n6cccn6)nc54)ccc32)C(C)C1 (single isomer, unassigned) [Example 100, 1-((3*,4*)-4-(((S)-5-(2-(2-aminopyridin-3-yl)-5-(1H-pyrazol-1-yl)-3H-imidazo[4,5-b]pyridin-3-yl)-2,3-dihydro-1H-inden-1-yl)amino)-3-methylpiperidin-1-yl)prop-2-en-1-one]",135 nM,53.6 nM,187 nM,9.09 nM,–
"C=CC(=O)N1CCC(N[C@H]2CCc3cc(-n4c(-c5cccnc5N)nc5ccc(-n6cccn6)nc54)ccc32)C(C)C1 (single isomer, unassigned) [Example 101, 1-((3*,4*)-4-(((S)-5-(2-(2-aminopyridin-3-yl)-5-(1H-pyrazol-1-yl)-3H-imidazo[4,5-b]pyridin-3-yl)-2,3-dihydro-1H-inden-1-yl)amino)-3-methylpiperidin-1-yl)prop-2-en-1-one]",290 nM,82.3 nM,270 nM,18.3 nM,–
